Results reported in patent publication US10155760B2, “Biaryl kinase inhibitors” (BRISTOL-MYERS SQUIBB COMPANY, priority 2014, dated 2018).

Key:
[1] = target: GST-Xa-hAAK1 (Homo sapiens (Human), UniProt Q2M2I8); assay: AAK1 Kinase Assay; type: biochemical; details: ATP 22 μM; GST-Xa-hAAK1 3.5 nM; 3 hours at room temperature
Experimental: The assays were performed in U-bottom 384-well plates. […] The reactions were initiated by the combination of bacterially expressed, GST-Xa-hAAK1 with substrates and test compounds. The reactions were incubated at room temperature for 3 hours and terminated by adding 60 μl of 35 mM EDTA buffer to each sample. The reactions were analyzed on the Caliper LabChip 3000 (Caliper, Hopkinton, Mass.) by electrophoretic separation of the fluorescent substrate and phosphorylated product. […] Compounds were dissolved at 10 mM in dimethylsulfoxide (DMSO) and evaluated at eleven concentrations. IC50 values were derived by non-linear regression analysis.

[2] = tested on: PC12 cells; details: cited from earlier work
[3] = tested on: HCV; details: Huh-7.5 cells; cited from earlier work
[4] = tested on: HCV; details: Huh-7.5 cells; cited from earlier work; remark: listed apart in the source

GST-Xa-hAAK1, sequence (Q2M2I8 whole entry): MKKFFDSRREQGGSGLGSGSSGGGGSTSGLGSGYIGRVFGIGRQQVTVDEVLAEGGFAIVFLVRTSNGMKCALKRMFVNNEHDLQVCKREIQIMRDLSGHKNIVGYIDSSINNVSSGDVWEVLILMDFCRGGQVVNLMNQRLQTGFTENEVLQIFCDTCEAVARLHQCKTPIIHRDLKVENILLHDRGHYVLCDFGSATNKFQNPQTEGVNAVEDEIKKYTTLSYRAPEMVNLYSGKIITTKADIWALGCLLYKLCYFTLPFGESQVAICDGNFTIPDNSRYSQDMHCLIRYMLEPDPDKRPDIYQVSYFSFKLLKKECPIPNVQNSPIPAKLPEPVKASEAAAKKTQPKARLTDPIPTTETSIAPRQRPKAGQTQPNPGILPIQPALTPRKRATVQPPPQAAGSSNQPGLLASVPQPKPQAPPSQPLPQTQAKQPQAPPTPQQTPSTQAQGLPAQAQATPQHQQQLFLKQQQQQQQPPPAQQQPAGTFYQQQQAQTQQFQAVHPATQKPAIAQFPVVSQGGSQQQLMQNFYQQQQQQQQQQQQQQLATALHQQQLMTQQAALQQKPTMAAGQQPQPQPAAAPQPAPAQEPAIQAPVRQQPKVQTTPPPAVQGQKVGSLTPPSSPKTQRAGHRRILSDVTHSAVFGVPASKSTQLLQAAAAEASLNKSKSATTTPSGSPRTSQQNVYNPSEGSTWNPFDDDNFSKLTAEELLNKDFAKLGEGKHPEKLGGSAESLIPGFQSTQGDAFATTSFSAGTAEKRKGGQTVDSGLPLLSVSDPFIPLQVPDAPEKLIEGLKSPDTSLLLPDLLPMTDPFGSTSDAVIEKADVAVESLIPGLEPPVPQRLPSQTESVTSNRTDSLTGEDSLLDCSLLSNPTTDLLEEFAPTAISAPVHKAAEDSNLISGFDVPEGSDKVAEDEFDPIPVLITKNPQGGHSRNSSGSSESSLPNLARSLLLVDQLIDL

CC(C)C[C@](C)(N)COc1ccc(-c2ccnc3cc(F)ccc23)nc1Cl [Example 136, (S)-1-((2-chloro-6-(7-fluoroquinolin-4-yl)pyridin-3-yl)oxy)-2,4-dimethylpentan-2-amine]
IC50 [1]: 4.8 nM

COC(=O)[C@@]1(O)C[C@H]2O[C@]1(C)n1c3ccccc3c3c4c(c5c6ccccc6n2c5c31)C(=O)NC4 [Example K252a, K252a]
effect on Neuregulin-1 induced neurite outgrowth [2]: potentiation of Neuregulin-1 induced neurite outgrowth

CCN(CC)CCNC(=O)c1c(C)[nH]c(/C=C2\C(=O)Nc3ccc(F)cc32)c1C [sunitinib]
effect on HCV virion assembly [3]: reduced HCV virion assembly
effect on HCV entry [4]: inhibit HCV entry
